Measured values taken from US10195313B2, “Method for forming hydrogel arrays using surfaces with differential wettability” (Wisconsin Alumni Research Foundation, priority 2014, dated 2019).
Non-standard residues stand in square brackets, D forms with d. No end group written: not given here.

Tested on: endothelial cells (HUVECs, iPSC-ECs, hESC-ECs)
Experiment: endothelial cell tubule network formation (tubulogenesis) on patterned hydrogel array spots
Type: cell-based, human
Details: 0.067 mM to 0.267 of peptide incorporated into hydrogel arrays
Protocol: In this Example, a patterned hydrogel array was used to investigate endothelial cell tubule network formation (termed “tubulogenesis”) in vitro.
Specifically, patterned hydrogel arrays were composed of 8-arm, 20 kDa polyethylene glycol) functionalized with norbenene. As illustrated in the schematic shown in FIG. 13A, the patterned hydrogel arrays included hydrogel spots contained from 30 mg/mL to 60 mg/mL PEG, from 30-70% crosslinking with an MMP-degradable crosslinking peptide (KCGGPQGIWGQGCK, SEQ ID NO:35 or KCGGPQGIAGQGCK, SEQ ID NO:36) and 0.25 mM to 2 mM of a cell adhesive peptide (CRGDS, SEQ ID NO:2). Patterned hydrogel array spots were seeded with human umbilical vein endothelial cells (HUVECs), human induced pluripotent stem cell-derived endothelial cells (iPSC-ECs), and human embryonic stem cell-derived endothelial cells (hESC-ECs) in culture media containing standard growth medium for each cell type (Medium 199 and EGM-2 BULLETKIT™ (Lonza, Basel, Switzerland) for HUVECs, VASCULIFE® and VEGF LifeFactors for iPSC-ECs and hESC-ECs (Lifeline Cell Technology, Frederick, Md.)).
The hydrogel spots that contained between 36 mg/mL to 60 mg/mL PEG, 30-70% crosslinking with an MMP-degradable crosslinking peptide and 0.25 mM to 2 mM of the cell adhesive peptide supported of EC tubule formation (FIG. 13C). […]

“CKDAPYEWNFDILdYdAdFdE (CKDAPYEWNFDIL[dY][dA][dF][dE]; not fully specified (residue 13))” was tested, and the “persistence of tubule networks” value was “enhanced”.
